From the kinase profiling compilation of Christmann-Franck et al. (2016)

What was measured:
Assay in all cases: radiometric filter-binding kinase assay
INSRR (human) = INSRR (human) (UniProt P14616)
LCK (mouse) = details: accession and sequence are those of the human protein
[1] = system: RPS6KB1 (human), P23443 [T412E]
MKNK1 (human) = MKNK1 (human) (UniProt Q9BUB5)
ROCK2 (rat) = details: accession and sequence are those of the human protein
MAPK11 (human) = MAPK11 (human) (UniProt Q15759)
MAPK13 (human) = MAPK13 (human) (UniProt O15264)
FGFR1 (human) = FGFR1 (human) (UniProt P11362)
Sequence of FGFR1 (human) (P11362 whole entry, looked up): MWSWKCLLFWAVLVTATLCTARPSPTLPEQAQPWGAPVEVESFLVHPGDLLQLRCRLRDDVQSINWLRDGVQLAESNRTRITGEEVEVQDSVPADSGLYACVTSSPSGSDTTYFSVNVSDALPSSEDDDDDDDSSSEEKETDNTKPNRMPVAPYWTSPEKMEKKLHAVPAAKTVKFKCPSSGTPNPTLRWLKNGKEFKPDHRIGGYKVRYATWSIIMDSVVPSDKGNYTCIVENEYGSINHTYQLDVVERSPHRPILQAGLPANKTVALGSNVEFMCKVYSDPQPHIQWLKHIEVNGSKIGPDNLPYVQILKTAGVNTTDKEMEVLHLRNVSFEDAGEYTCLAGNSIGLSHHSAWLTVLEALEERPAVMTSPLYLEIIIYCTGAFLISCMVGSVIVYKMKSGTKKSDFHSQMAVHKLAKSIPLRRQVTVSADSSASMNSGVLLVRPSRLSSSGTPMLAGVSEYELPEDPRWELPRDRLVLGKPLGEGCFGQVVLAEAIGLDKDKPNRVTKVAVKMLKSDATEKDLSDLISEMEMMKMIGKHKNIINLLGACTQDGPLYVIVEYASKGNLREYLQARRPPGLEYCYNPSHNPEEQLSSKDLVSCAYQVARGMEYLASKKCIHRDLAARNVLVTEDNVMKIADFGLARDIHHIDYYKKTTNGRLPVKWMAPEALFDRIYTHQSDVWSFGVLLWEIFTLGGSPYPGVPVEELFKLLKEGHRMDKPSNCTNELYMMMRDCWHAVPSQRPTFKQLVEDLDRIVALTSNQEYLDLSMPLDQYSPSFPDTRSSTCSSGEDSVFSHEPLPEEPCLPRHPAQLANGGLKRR

MAP2K1 (human) = MAP2K1 (human) (UniProt Q02750)
DYRK3 (human) = DYRK3 (human) (UniProt O43781)
PIM3 (human) = PIM3 (human) (UniProt Q86V86)
NEK2 (human) = NEK2 (human) (UniProt P51955)
GSK3B (human) = GSK3B (human) (UniProt P49841)
CSNK2A1 (human) = CSNK2A1 (human) (UniProt P68400)
Sequence of CSNK2A1 (human) (P68400 whole entry, looked up): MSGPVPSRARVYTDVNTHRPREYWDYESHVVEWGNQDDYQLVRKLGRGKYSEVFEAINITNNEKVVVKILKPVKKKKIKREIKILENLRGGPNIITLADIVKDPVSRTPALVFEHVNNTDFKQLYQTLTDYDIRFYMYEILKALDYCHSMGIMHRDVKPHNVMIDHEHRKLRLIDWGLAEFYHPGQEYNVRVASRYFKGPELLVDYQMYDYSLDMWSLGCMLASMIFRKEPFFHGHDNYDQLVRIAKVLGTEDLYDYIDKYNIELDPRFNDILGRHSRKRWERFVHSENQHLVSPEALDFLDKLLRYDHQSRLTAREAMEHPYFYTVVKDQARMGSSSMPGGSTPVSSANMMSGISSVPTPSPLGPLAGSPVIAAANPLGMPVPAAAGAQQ

EPHA2 (human) = EPHA2 (human) (UniProt P29317)
Sequence of EPHA2 (human) (P29317 whole entry, looked up): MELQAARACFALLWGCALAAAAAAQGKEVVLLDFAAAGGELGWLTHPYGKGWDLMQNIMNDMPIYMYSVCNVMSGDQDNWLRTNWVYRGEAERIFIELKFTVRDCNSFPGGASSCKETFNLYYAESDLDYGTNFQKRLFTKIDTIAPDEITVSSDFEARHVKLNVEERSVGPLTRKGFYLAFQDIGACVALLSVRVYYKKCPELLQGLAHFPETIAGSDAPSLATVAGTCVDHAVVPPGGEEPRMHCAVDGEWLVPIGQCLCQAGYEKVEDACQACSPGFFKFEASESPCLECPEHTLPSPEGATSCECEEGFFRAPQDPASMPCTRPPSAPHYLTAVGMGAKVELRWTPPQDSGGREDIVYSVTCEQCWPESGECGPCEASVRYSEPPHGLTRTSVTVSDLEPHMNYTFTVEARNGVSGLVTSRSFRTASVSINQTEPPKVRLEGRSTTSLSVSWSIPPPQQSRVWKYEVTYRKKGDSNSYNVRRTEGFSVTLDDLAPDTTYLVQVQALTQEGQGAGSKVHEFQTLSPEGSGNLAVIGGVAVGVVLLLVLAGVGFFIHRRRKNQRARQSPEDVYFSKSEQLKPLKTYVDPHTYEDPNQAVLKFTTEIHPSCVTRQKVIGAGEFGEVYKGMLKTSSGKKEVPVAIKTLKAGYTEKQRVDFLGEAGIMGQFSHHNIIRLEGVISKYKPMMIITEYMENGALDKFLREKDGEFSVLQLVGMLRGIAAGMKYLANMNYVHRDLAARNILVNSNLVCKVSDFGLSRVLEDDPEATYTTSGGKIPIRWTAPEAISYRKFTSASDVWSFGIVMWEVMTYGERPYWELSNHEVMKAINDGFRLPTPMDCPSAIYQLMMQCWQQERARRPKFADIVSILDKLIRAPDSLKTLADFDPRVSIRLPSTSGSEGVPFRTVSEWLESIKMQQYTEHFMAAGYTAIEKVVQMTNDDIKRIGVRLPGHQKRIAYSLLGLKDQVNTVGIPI

TBK1 (human) = TBK1 (human) (UniProt Q9UHD2)
PKN2 (human) = PKN2 (human) (UniProt Q16513)
Sequence of PKN2 (human) (Q16513 whole entry, looked up): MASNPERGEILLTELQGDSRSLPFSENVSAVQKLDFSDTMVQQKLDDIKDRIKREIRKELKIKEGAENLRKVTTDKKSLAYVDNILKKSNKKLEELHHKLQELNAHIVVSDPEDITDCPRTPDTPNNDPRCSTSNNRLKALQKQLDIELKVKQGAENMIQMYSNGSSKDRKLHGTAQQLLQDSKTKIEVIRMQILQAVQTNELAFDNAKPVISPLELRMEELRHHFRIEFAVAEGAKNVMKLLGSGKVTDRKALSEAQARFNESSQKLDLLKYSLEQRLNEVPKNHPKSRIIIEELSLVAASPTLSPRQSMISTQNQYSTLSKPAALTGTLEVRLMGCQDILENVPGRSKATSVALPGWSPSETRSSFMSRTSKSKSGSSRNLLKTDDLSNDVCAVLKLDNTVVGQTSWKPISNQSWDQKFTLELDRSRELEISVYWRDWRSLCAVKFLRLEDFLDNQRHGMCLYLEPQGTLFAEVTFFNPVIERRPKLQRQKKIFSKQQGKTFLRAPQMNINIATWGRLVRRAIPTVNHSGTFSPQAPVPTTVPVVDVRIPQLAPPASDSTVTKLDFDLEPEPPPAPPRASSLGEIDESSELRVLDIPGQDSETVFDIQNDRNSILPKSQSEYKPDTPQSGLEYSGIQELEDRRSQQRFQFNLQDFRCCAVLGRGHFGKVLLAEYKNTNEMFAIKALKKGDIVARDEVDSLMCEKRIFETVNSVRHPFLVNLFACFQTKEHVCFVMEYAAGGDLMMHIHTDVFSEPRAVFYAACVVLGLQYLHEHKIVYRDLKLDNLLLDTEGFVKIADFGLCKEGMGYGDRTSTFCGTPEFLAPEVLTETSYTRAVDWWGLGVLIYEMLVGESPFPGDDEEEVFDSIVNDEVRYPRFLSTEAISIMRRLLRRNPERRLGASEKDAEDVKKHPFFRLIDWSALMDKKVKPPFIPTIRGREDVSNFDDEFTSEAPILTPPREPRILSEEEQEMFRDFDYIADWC

MYLK (human) = MYLK (human) (UniProt Q15746)
[2] = system: AKT2 (human), P31751 [S474D]
Sequence of AKT2 (human), P31751 [S474D] (P31751 whole entry S474D, looked up): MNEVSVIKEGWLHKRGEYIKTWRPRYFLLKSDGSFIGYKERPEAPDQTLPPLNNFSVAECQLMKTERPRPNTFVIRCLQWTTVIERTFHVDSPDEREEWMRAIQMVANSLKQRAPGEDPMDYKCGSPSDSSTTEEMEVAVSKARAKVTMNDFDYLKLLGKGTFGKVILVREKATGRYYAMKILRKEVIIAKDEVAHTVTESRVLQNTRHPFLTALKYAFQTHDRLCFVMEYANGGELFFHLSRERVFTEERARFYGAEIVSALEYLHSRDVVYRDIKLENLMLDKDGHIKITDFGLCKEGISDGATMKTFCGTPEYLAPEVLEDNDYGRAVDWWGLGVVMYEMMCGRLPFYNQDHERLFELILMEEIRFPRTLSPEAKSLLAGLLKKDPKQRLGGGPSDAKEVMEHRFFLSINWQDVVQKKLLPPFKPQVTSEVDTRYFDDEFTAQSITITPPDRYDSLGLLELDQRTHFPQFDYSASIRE

PIM2 (human) = PIM2 (human) (UniProt Q9P1W9)
SRPK1 (human) = SRPK1 (human) (UniProt Q96SB4)
PHKG1 (human) = PHKG1 (human) (UniProt Q16816)
Sequence of PHKG1 (human) (Q16816 whole entry, looked up): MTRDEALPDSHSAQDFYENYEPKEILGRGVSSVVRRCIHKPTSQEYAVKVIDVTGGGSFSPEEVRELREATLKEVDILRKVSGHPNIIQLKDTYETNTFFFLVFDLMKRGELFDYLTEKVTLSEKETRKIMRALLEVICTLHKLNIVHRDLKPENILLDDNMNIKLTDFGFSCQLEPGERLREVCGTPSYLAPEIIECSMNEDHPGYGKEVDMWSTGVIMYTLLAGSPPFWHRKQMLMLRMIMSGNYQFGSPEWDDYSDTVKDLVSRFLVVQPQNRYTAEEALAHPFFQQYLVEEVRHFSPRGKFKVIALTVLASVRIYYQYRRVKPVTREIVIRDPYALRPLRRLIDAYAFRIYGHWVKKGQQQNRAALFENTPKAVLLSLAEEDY

INSR (human) = INSR (human) (UniProt P06213)
SYK (human) = SYK (human) (UniProt P43405)
[3] = system: AKT1 (human), P31749 [S473D]
NEK6 (human) = NEK6 (human) (UniProt Q9HC98)

Sequence of RPS6KB1 (human), P23443 [T412E] (P23443 whole entry T412E, looked up): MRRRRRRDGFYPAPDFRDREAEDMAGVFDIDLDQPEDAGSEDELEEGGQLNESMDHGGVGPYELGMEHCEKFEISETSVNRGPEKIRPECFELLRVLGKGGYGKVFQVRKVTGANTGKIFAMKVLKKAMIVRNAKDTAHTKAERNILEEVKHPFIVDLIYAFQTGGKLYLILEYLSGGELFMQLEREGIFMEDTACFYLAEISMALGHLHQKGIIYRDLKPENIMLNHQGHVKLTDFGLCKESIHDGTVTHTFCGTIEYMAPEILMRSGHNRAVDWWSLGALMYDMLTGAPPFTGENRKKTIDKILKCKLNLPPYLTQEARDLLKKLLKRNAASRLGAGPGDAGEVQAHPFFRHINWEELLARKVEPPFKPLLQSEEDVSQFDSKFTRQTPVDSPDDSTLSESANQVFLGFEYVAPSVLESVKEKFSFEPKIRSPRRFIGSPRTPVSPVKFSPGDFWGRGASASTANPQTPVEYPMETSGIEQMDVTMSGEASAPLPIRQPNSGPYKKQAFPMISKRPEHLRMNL

O=C1NC(=S)N[C@@H]1Cc1c[nH]c2ccccc12
residual activity (INSRR (human); compound 1.0 µM): 83% | residual activity (INSRR (human); compound 10.0 µM): 90% | residual activity (LCK (mouse); compound 1.0 µM): 74% | residual activity (LCK (mouse); compound 10.0 µM): 95% | residual activity ([1]; compound 1.0 µM): 88% | residual activity ([1]; compound 10.0 µM): 100% | residual activity (MKNK1 (human); compound 1.0 µM): 85% | residual activity (ROCK2 (rat); compound 1.0 µM): 83% | residual activity (ROCK2 (rat); compound 10.0 µM): 96% | residual activity (MAPK11 (human); compound 1.0 µM): 94% | residual activity (MAPK11 (human); compound 10.0 µM): 95% | residual activity (MAPK13 (human); compound 1.0 µM): 94% | residual activity (MAPK13 (human); compound 10.0 µM): 98% | residual activity (FGFR1 (human); compound 1.0 µM): 83% | residual activity (FGFR1 (human); compound 10.0 µM): 80% | residual activity (MAP2K1 (human); compound 1.0 µM): -2% | residual activity (MAP2K1 (human); compound 10.0 µM): 2% | residual activity (DYRK3 (human); compound 1.0 µM): 78% | residual activity (DYRK3 (human); compound 10.0 µM): 96% | residual activity (PIM3 (human); compound 1.0 µM): 90% | residual activity (PIM3 (human); compound 10.0 µM): 95% | residual activity (NEK2 (human); compound 1.0 µM): 87% | residual activity (NEK2 (human); compound 10.0 µM): 92% | residual activity (GSK3B (human); compound 1.0 µM): 99% | residual activity (GSK3B (human); compound 10.0 µM): 92% | residual activity (CSNK2A1 (human); compound 1.0 µM): 83% | residual activity (CSNK2A1 (human); compound 10.0 µM): 93% | residual activity (EPHA2 (human); compound 1.0 µM): 94% | residual activity (EPHA2 (human); compound 10.0 µM): 86% | residual activity (TBK1 (human); compound 1.0 µM): 106% | residual activity (TBK1 (human); compound 10.0 µM): 94% | residual activity (PKN2 (human); compound 1.0 µM): 87% | residual activity (PKN2 (human); compound 10.0 µM): 82% | residual activity (MYLK (human); compound 1.0 µM): 70% | residual activity (MYLK (human); compound 10.0 µM): 94% | residual activity ([2]; compound 1.0 µM): 83% | residual activity ([2]; compound 10.0 µM): 97% | residual activity (PIM2 (human); compound 1.0 µM): 97% | residual activity (PIM2 (human); compound 10.0 µM): 86% | residual activity (SRPK1 (human); compound 1.0 µM): 100% | residual activity (SRPK1 (human); compound 10.0 µM): 98% | residual activity (PHKG1 (human); compound 1.0 µM): 95% | residual activity (PHKG1 (human); compound 10.0 µM): 96% | residual activity (INSR (human); compound 1.0 µM): 96% | residual activity (INSR (human); compound 10.0 µM): 103% | residual activity (SYK (human); compound 1.0 µM): 92% | residual activity (SYK (human); compound 10.0 µM): 116% | residual activity ([3]; compound 1.0 µM): 87% | residual activity ([3]; compound 10.0 µM): 90% | residual activity (NEK6 (human); compound 1.0 µM): 83% | residual activity (NEK6 (human); compound 10.0 µM): 87%

C[C@H]1CCCC(=O)CCC/C=C/c2cc(O)cc(O)c2C(=O)O1
residual activity (INSRR (human); compound 1.0 µM): 75% | residual activity (INSRR (human); compound 10.0 µM): 41% | residual activity (LCK (mouse); compound 1.0 µM): 69% | residual activity (LCK (mouse); compound 10.0 µM): 26% | residual activity ([1]; compound 1.0 µM): 106% | residual activity ([1]; compound 10.0 µM): 61% | residual activity (MKNK1 (human); compound 1.0 µM): 89% | residual activity (MKNK1 (human); compound 10.0 µM): 46% | residual activity (ROCK2 (rat); compound 1.0 µM): 82% | residual activity (ROCK2 (rat); compound 10.0 µM): 81% | residual activity (MAPK11 (human); compound 1.0 µM): 108% | residual activity (MAPK11 (human); compound 10.0 µM): 101% | residual activity (MAPK13 (human); compound 1.0 µM): 84% | residual activity (MAPK13 (human); compound 10.0 µM): 87% | residual activity (FGFR1 (human); compound 1.0 µM): 90% | residual activity (FGFR1 (human); compound 10.0 µM): 51% | residual activity (MAP2K1 (human); compound 1.0 µM): 66% | residual activity (MAP2K1 (human); compound 10.0 µM): 55% | residual activity (DYRK3 (human); compound 1.0 µM): 100% | residual activity (DYRK3 (human); compound 10.0 µM): 62% | residual activity (PIM3 (human); compound 1.0 µM): 49% | residual activity (PIM3 (human); compound 10.0 µM): 18% | residual activity (NEK2 (human); compound 1.0 µM): 93% | residual activity (NEK2 (human); compound 10.0 µM): 96% | residual activity (GSK3B (human); compound 1.0 µM): 47% | residual activity (GSK3B (human); compound 10.0 µM): 11% | residual activity (CSNK2A1 (human); compound 1.0 µM): 97% | residual activity (CSNK2A1 (human); compound 10.0 µM): 96% | residual activity (EPHA2 (human); compound 1.0 µM): 69% | residual activity (EPHA2 (human); compound 10.0 µM): 26% | residual activity (TBK1 (human); compound 1.0 µM): 82% | residual activity (TBK1 (human); compound 10.0 µM): 80% | residual activity (PKN2 (human); compound 1.0 µM): 70% | residual activity (PKN2 (human); compound 10.0 µM): 33% | residual activity (MYLK (human); compound 1.0 µM): 104% | residual activity (MYLK (human); compound 10.0 µM): 59% | residual activity ([2]; compound 1.0 µM): 97% | residual activity ([2]; compound 10.0 µM): 89% | residual activity (PIM2 (human); compound 1.0 µM): 86% | residual activity (PIM2 (human); compound 10.0 µM): 45% | residual activity (SRPK1 (human); compound 1.0 µM): 95% | residual activity (SRPK1 (human); compound 10.0 µM): 89% | residual activity (PHKG1 (human); compound 1.0 µM): 102% | residual activity (PHKG1 (human); compound 10.0 µM): 86% | residual activity (INSR (human); compound 1.0 µM): 107% | residual activity (INSR (human); compound 10.0 µM): 102% | residual activity (SYK (human); compound 1.0 µM): 93% | residual activity (SYK (human); compound 10.0 µM): 84% | residual activity ([3]; compound 10.0 µM): 95% | residual activity (NEK6 (human); compound 1.0 µM): 91% | residual activity (NEK6 (human); compound 10.0 µM): 91%
